Data reported in patent publication US12577267B2, “Pyrimidine compounds for use as MAP4K1 inhibitors” (GLENMARK SPECIALITY S.A., priority 2021, dated 2026).
Structures can show the parent of a compound that is named as a salt. Where two headings read alike, the source gives them in different places.

Columns and labels:
[1] = biological target: MAP4K-1 enzyme (Homo sapiens, UniProt Q92918); experiment: FRET one step binding assay (tracer displacement)
Outline: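 TR-FRET tracer-displacement binding with 5 nM GST-tagged MAP4K-1 and 2 nM Eu-anti-GST antibody in 50 mM HEPES pH 7.5, 10 mM MgCl2, 1 mM EGTA, 0.01% Brij-35, 3% DMSO final. Compound pre-incubated 15 min on ice, then 1 h at room temperature after tracer addition. IC50 from nonlinear regression of percent-of-control dose-response.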

[2] = test system: CT26 tumor; experiment: Anti-tumor efficacy on a syngeneic mouse colon tumor model of CT26; format: in vivo, BALB/c mice
Procedure: Evaluation of Anti-Tumor Efficacy of Example 2 and Example 30 on a Syngeneic Mouse Colon Tumor Model of CT26.
Healthy female BALB/c mice (7 to 9 weeks old and 15 to […]) were obtained from Glenmark animal facility. Animals were group housed in polypropylene cages at a controlled temperature of 20-22° C. with a light/dark cycle of 12/12 hours. They were maintained on an ad lib standard mouse pellet diet and water and all animal experiments were performed as per protocols approved by the Institutional Animal Ethics Committee (IAEC).
CT-26 cell line was obtained from American type culture (ATCC® CRL-2638™). Cells were revived in T-flask (passage 5) with complete RPMI-1640 media and incubated at 37° C. in 5% CO2, 80% relative humidity. Cells were re-suspended, pooled and split into 1:10 ratio per flask, maintained for 3 passages and passage 8 was used for cell inoculation into animals.
The right flank region of mice was shaved by electronic shaver. Required number of CT26 cells (10 million per mL of serum free media) received on ice from cell culture lab. The mice were anesthetized by isoflurane with O2 (oxygen flow meter to 1-2 liter/min and turn isoflurane vaporizer dial to 2-3%). The cells were inoculated into the right flank region of mice at cell concentration of 1 million cells/100 μL/mouse. The inoculated mice were housed in the animal room with daily observation for any undue clinical signs.
On day 10 after cell inoculation, mice were randomized based on tumor volume and grouped into different treatment groups. The mice with tumor volume range of 57 mm^3 to 119 mm^3 were included in efficacy study. Tumor volume was measured using digital vernier caliper.
The volume calculations were obtained using the formula V(mm^3)=[L×(W×W)]×0.52 • V is tumor volume, L is tumor length and W is tumor width
Compound Preparation and Administration
0.5% v/v Tween 80 and 0.5% w/v Methyl Cellulose in distilled water was used as vehicle for oral formulation. Example 2 and Example 30 were weighed and a stock suspension of 50 mg/kg/10 mL was prepared in a mortar and pestle by adding Tween 80 (0.5% v/v), Methyl cellulose (MC, 0.5% w/v). […] The body weights were recorded on daily basis and the dosing time was maintained throughout the study. […]
Tumor volume was measured in a blinded manner throughout the study. […] The % TGI was calculated by following the formula: [1−{(Tt−T0)/(Ct−C0)}]×100. • Tt=Tumor volume of treatment group on day of tumor volume • T0=Tumor volume of treatment group on day of randomization • Ct=Tumor volume of vehicle control group on day of tumor volume • C0=Tumor volume of control group on day of randomization Sacrifice Plan […]
Tumor volume data was statistically analyzed using Two-way ANOVA followed by Bonferroni's Multiple Comparison Test. […]

Sequence of MAP4K-1 enzyme (Q92918 whole entry): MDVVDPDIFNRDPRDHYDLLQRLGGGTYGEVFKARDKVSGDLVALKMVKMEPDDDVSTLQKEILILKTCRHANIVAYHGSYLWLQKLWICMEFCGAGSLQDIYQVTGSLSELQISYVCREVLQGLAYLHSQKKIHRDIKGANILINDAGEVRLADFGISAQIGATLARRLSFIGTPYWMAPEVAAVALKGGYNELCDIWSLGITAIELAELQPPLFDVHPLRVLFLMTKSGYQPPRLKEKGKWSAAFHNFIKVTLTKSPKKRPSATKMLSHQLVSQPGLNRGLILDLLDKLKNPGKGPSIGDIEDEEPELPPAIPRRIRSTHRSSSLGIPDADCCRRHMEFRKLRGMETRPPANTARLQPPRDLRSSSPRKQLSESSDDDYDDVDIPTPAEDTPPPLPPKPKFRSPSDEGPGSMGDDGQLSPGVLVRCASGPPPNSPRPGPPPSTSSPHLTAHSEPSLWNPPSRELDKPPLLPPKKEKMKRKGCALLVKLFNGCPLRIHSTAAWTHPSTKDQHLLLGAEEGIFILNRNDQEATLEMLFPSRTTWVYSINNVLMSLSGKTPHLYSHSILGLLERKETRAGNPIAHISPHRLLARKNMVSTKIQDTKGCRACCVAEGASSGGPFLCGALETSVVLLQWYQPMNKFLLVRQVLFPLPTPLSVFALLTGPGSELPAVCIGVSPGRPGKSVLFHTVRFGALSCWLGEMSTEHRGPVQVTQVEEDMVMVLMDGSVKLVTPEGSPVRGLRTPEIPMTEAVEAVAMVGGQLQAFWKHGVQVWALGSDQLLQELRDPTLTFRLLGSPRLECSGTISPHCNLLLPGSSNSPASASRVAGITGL

For `COc1cc2c(cc1Nc1ncc(Cl)c(Nc3ccc(OS(=O)(=O)F)cc3P(C)(C)=O)n1)CN(C)CC2` [Example 2, 4-((5-chloro-2-((6-methoxy-2-methyl-1,2,3,4-tetrahydroisoquinolin-7-yl)amino)pyrimidin-4-yl)amino)-3-(dimethylphosphoryl)phenyl sulfofluoridate dihydrochloride], the inhibition at 1 µM ([1]; 1 μM compound) was 86%, the inhibition at 10 µM ([1]; 10 μM compound) was 82.1% and the IC50 ([1]; IC50 (nM)) was less than 50 nM. For the same compound, the “Tumor growth inhibition (TGI)” value ([2]; 10 mg/kg p.o. QD, day 24, vs vehicle group) was 40% and the “Tumor growth inhibition (TGI)” value ([2]; 50 mg/kg p.o. QD, day 24, vs vehicle group) was 61%.
In the case of `COc1cc2c(cc1Nc1ncc(Cl)c(Nc3ccc(OS(=O)(=O)F)cc3P(C)(C)=O)n1)C(C)N(C)CC2` (single isomer, unassigned; isomer 2) [Example 30, 4-((5-Chloro-2-((6-methoxy-1,2-dimethyl-1,2,3,4-tetrahydroisoquinolin-7-yl)amino)pyrimidin-4-yl)amino)-3-(dimethylphosphoryl)phenyl sulfofluoridate dihydrochloride (Isomer 2)], the IC50 [1] is reported as less than 50 nM, the “% Inhibition at 1 μM” value ([1]; 1 μM compound, 1 µM) is reported as 79.12% and the “% Inhibition at 10 μM” value ([1]; 10 μM compound, 10 µM) is reported as 82.70%. The “Tumor growth inhibition (TGI)” value ([2]; 10 mg/kg p.o. QD, day 25, vs vehicle group) was 37% and the “Tumor growth inhibition (TGI)” value ([2]; 50 mg/kg p.o. QD, day 25, vs vehicle group) was 62%.
Work on `Cn1nc(Nc2ncc(Cl)c(Nc3ccc(OS(=O)(=O)F)cc3P(C)(C)=O)n2)c2c1CNC2` [Example 41, 4-((5-Chloro-2-((1-methyl-1,4,5,6-tetrahydropyrrolo[3,4-c]pyrazol-3-yl)amino)pyrimidin-4-yl)amino)-3-(dimethylphosphoryl)phenyl sulfofluoridate hydrochloride] yielded an inhibition at 1 µM ([1]; 1 μM compound) of 90.4%, an inhibition at 10 µM ([1]; 10 μM compound) of 85% and an IC50 ([1]; IC50 (nM)) of less than 50 nM.
For `[2H]C([2H])([2H])N1CCc2cc(OC)c(Nc3ncc(Cl)c(Nc4ccc(OS(=O)(=O)F)cc4P(C)(C)=O)n3)cc2C1` [Example 4, 4-((5-Chloro-2-((6-methoxy-2-(methyl-d3)-1,2,3,4-tetrahydroisoquinolin-7-yl)amino)pyramidin-4-yl)amino)-3-(dimethylphosphoryl) phenylsulfurofluoridate dihydrochloride], the inhibition at 1 µM ([1]; 1 μM compound) was 72.9%, the inhibition at 10 µM ([1]; 10 μM compound) was 78.4% and the IC50 ([1]; IC50 (nM)) was less than 50 nM.
`COc1cc2c(cc1Nc1ncc(Cl)c(Nc3ccc(OS(=O)(=O)F)cc3P(C)(C)=O)n1)CN(CC(F)F)CC2` [Example 8, 4-((5-Chloro-2-((2-(2,2-difluoroethyl)-6-methoxy-1,2,3,4-tetrahydroisoquinolin-7-yl)amino)pyrimidin-4-yl)amino)-3-(dimethylphosphoryl)phenyl sulfurofluoridate dihydrochloride] was tested, and the inhibition at 1 µM ([1]; 1 μM compound) was 63.7%, the inhibition at 10 µM ([1]; 10 μM compound) was 80% and the IC50 ([1]; IC50 (nM)) was less than 50 nM.
